According to US20220009914A1, “Analogs of Nitrofuran Antibiotics to Combat Resistance” (The Trustees of Indiana University, priority 2020, published 2022):
Read-outs that look alike come from different tables or passages of the source.

Experiments:
[1] = system: NEB 5-alpha Escherichia coli; test: bacterial proliferation assay, E. coli; format: cell-based; conditions: for EC50: read-out: Bacterial Proliferation EC50 E. coli
Protocol: (§1) All compounds were evaluated for inhibiting the proliferation of E. coli and each of the ESKAPE bacteria. Results presented represent the averages of EC50 values obtained from at least four replicates. Evaluating compounds for inhibition of bacterial cell proliferation.
(§2) Growth Media: E. coli were grown with LB medium and all ESKAPE bacteria were grown in Brain Heart Infusion (BHI) medium (Becton, Dickinson and Company), with all liquid cultures supplemented with 25 mg/L Ca^2+ and 12.5 mg/L Mg^2+ to mimic physiological free concentrations of these cations. A 10 mg/mL Ca^2+ stock solution was prepared by dissolving 1.84 g of CaCl2.2H2O in 50 mL of deionized water, and a 10 mg/mL Mg^2+ stock solution was prepared by dissolving 4.18 g of MgCl2.6H2O in 50 mL deionized water—filter sterilized using 0.2 μm cellulose-acetate filters. 2.5 mL of the sterile 10 mg/mL Ca^2+ stock and 1.25 mL of the sterile 10 mg/mL Mg^2+ stock solutions were added per 1 L of autoclaved LB or BHI media to obtain 25 mg/L Ca^2+ and 12.5 mg/L Mg^2+ ions, respectively.
(§3) General Assay Protocol: Stock bacterial cultures were streaked onto LB or BHI agar plates and grown overnight at 37° C. Fresh aliquots of cation supplemented media were inoculated with single bacterial colonies and the cultures were grown overnight at 37° C. with shaking (240 rpm). The following morning, cultures were diluted 10-fold into fresh media and grown at 37° C. until bacteria had reached mid-log phase growth (OD600˜0.4-0.6). The cultures were then diluted into fresh media to achieve final OD600 readings of 0.017. Aliquots of these diluted cultures (30 μL) were added to clear, flat-bottom 384-well polystyrene plates that were previously stamped with 0.5 μL of test compounds in 20 μL of media (yielding initial OD600=0.01 bacterial cultures). All compounds were tested in dose-response with concentration ranges during the proliferation assays from 100 μM to 46 nM (3-fold dilution series). A second set of baseline control plates were prepared analogously, but without any bacteria added, to correct for possible compound absorbance and/or precipitation. […] Plates were then read at 600 nm using a Molecular Devices SpectraMax Plus384 microplate reader. […] Results presented represent the averages of EC50 values obtained from at least four replicates.
(§4) Evaluating analogs for inhibiting the growth of E. coli and the ESKAPE bacteria. Analogs were initially tested for antibacterial efficacy against representative strains of antibiotic-sensitive E. coli and the ESKAPE bacteria. To determine compound efficacy, bacterial proliferation assays were carried out in liquid media culture supplemented with physiological concentrations of free calcium and magnesium cations. For these assays, bacterial cultures (OD600=0.01) were exposed to test compounds in 8-point, 3-fold dilution series (100 μM to 46 nM concentration range), in 384-well plates. After addition of compounds to cultures, the plates were sealed with Breathe-Easy gas permeable membranes and allowed to grow to mid-log phase (OD600˜0.4-0.6), whereupon final OD600 readings were taken to assess for bacterial growth and inhibition.

native MDH = molecular target: T1, native MDH (Sus scrofa, UniProt P00346); test: native MDH enzymatic activity counter-screen; format: biochemical, pig
T1 sequence (P00346 25-338): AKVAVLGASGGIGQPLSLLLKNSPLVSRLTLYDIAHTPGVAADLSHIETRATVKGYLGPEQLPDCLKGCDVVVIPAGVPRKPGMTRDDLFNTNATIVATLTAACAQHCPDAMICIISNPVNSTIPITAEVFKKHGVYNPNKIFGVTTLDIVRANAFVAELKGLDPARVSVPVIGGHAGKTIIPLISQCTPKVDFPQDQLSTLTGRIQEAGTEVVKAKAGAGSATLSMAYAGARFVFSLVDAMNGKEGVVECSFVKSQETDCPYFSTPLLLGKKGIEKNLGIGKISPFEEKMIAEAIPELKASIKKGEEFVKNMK
Protocol: Reagent Preparations & Assay Protocol: This assay was performed as described above for the GroEL/ES-dMDH refolding assay; however, the assay protocol differed in the sequence of compound addition to the assay plates. The refolding reactions were allowed to proceed for 45 min at 37° C. in the absence of test compounds (complete refolding of MDH occurs), then quenched with the EDTA stock. Compounds were then pin-transferred into the plates after the EDTA quenching step; thus, compound effects are only possible by inhibiting the fully-refolded MDH reporter substrate. […] A340 nm measurements were recorded at 0.5 minutes (start point) and at successive time points until the amount of NADH consumed reached ˜90% (end point, generally between 20-35 minutes). Compounds were tested in 8-point, 3-fold dilution series (62.5 μM to 29 nM during the reporter reaction) in clear, flat-bottom 384-well microtiter plates. IC50 values for the MDH reporter enzyme were determined as described above. Results presented represent the averages of IC50 values obtained from at least five replicates.
Evaluating analogs for inhibiting GroEL/ES-mediated substrate refolding functions. […] We first evaluated all test compounds in our standard GroEL/ES-mediated refolding assays that employ either malate dehydrogenase (MDH) or rhodanese (Rho) as the denatured substrate reporter enzymes. When denatured, these enzymes are efficiently folded by GroEL/ES in the absence of inhibitors, and thus act as reporters to determine the degree of inhibition against the bacterial chaperonin system. Inhibition was examined in the presence of these two orthogonal substrates in order to support that GroEL/ES inhibitors were on-target. To further support on-target effects against GroEL/ES, we counter-screened for inhibition of the native MDH and Rho enzymatic reporter reactions, where test compounds were added after the denatured MDH and Rho substrate enzymes were completely refolded by GroEL/ES.

[2] = system: Klebsiella pneumoniae strain NCTC 9633 (ATCC #13883); test: bacterial proliferation assay, K. pneumoniae; format: cell-based; conditions: for EC50: read-out: Bacterial Proliferation EC50 K. pneumoniae
Protocol: as §1, §2, §3, §4

[3] = without NfsB nitroreductase, compounds added after refolding, read-out: Native MDH Activity IC50

Structure (SMILES)	EC50 ([1]; Escherichia coli) [µM]	IC50 (native MDH; [3]) [µM]	EC50 ([2]; Klebsiella pneumoniae) [µM]	EC50 [2] [µM]	EC50 [1] [µM]	inhibition of K. pneumoniae in words [2]	inhibition of E. coli proliferation in words [1]	IC50 (native MDH) [µM]
O=C(N/N=C/c1ccc(O)c2ncccc12)c1ccccc1Oc1ccccc1 [Compound 10, N′-((8-hydroxyquinolin-5-yl)methylene)-2-phenoxybenzohydrazide]	> 100	> 63	> 100					
O=C(N/N=C/c1ccc(O)c2ncccc12)c1ccc(NS(=O)(=O)c2cccs2)cc1 [Compound 13, N-(4-(2-((8-hydroxyquinolin-5-yl)methylene)hydrazine-1-carbonyl)phenyl)thiophene-2-sulfonamide]	> 100	> 63	> 100					
CN(C)c1ccc(C(=O)N/N=C/c2ccc(O)c3ncccc23)cc1 [Compound 8, 4-(dimethylamino)-N′-((8-hydroxyquinolin-5-yl)methylene)benzohydrazide]	93	> 63	> 100					
COc1ccc(C(=O)N/N=C/c2cccc3ncccc23)cc1 [Compound 31, 4-methoxy-N′-(quinolin-5-ylmethylene)benzohydrazide]	> 100	> 63	> 100					
COc1ccc(C(=O)N/N=C/c2ccc(O)c3ncccc23)cc1 [Compound 1, N′-((8-hydroxyquinolin-5-yl)methylene)-4-methoxybenzohydrazide]	> 100	> 63		85				
O=C(N/N=C/c1ccc(O)c2ncccc12)c1cccc2ccccc12 [Compound 9, N′-((8-hydroxyquinolin-5-yl)methylene)-1-naphthohydrazide]	> 100	> 63	> 100					
CCN(CC)S(=O)(=O)c1cccc(C(=O)N/N=C/c2ccc(O)c3ncccc23)c1 [Compound 12, N,N-diethyl-3-(2-((8-hydroxyquinolin-5-yl)methylene)hydrazine-1-carbonyl)benzenesulfonamide]	99	> 63	> 100					
COc1ccc(C(=O)N/N=C/c2ccc([N+](=O)[O-])o2)cc1 [Compound 20, 4-methoxy-N′-((5-nitrofuran-2-yl)methylene)benzohydrazide]	1.9		> 100					
CCN(CC)S(=O)(=O)c1cccc(C(=O)N/N=C/c2ccc([N+](=O)[O-])o2)c1 [Compound 25, N,N-diethyl-3-(2-((5-nitrofuran-2-yl)methylene)hydrazine-1-carbonyl)benzenesulfonamide]	> 100	> 63	> 100					
O=C(N/N=C/c1ccc([N+](=O)[O-])o1)c1cccs1 [Compound 16, N′-((5-nitrofuran-2-yl)methylene)thiophene-2-carbohydrazide]			16		0.42	moderate inhibitors		
CN(C)c1ccc(C(=O)N/N=C/c2ccc([N+](=O)[O-])o2)cc1 [Compound 21, 4-(dimethylamino)-N′-((5-nitrofuran-2-yl)methylene)benzohydrazide]	10		> 100					
O=C(N/N=C/c1ccc([N+](=O)[O-])o1)c1ccncc1 [Compound 19, N′-((5-nitrofuran-2-yl)methylene)isonicotinohydrazide]	2.4		42					
O=C(N/N=C/c1ccc([N+](=O)[O-])o1)c1ccc(NS(=O)(=O)c2cccs2)cc1 [Compound 26, N-(4-(2-((5-nitrofuran-2-yl)methylene)hydrazine-1-carbonyl)phenyl)thiophene-2-sulfonamide]	17	> 63	> 100					
O=C(N/N=C/c1ccc(O)c2ncccc12)c1ccccc1 [Compound 5, N′-((8-hydroxyquinolin-5-yl)methylene)benzohydrazide]	63	> 63	82					
O=Cc1ccc([N+](=O)[O-])o1 [Compound 41, reference compound]	9.5	> 63	10					
O=C(N/N=C/c1cccc2ccccc12)c1ccccc1 [Compound 34, N′-(naphthalen-1-ylmethylene)benzohydrazide]	> 100	> 63	> 100					
O=[N+]([O-])c1ccc(O)c2ncccc12 [Nitroxoline, reference compound]	4	> 63	2.8					
O=C(N/N=C/c1ccc(O)c2ncccc12)c1cccs1 [Compound 3, N′-((8-hydroxyquinolin-5-yl)methylene)thiophene-2-carbohydrazide]	77	> 63	99					
O=C(N/N=C/c1ccc(O)c2ncccc12)c1ccc(O)cc1 [Compound 7, 4-hydroxy-N′-((8-hydroxyquinolin-5-yl)methylene)benzohydrazide]	46	> 63	87					
O=C(N/N=C/c1ccc([N+](=O)[O-])o1)c1ccc(O)cc1 [Nifuroxazide, reference compound]	0.87		37				potent inhibitors	> 63
O=C(N/N=C/c1ccc(O)cc1)c1ccccc1 [Compound 36, N′-(4-hydroxybenzylidene)benzohydrazide]	> 100	> 63	> 100					
COc1ccc(C(=O)N/N=C/c2ccccc2)cc1 [Compound 37, N′-benzylidene-4-methoxybenzohydrazide]	> 100	> 63	> 100					
O=C1CN(/N=C/c2ccc([N+](=O)[O-])o2)C(=O)N1 [Nitrofurantoin, reference compound]	0.69		40				potent inhibitors	
O=C(N/N=C/c1ccc([N+](=O)[O-])o1)c1ccccc1 [Compound 18, N′-((5-nitrofuran-2-yl)methylene)benzohydrazide]	2.1		36					
O=C(N/N=C/c1ccc([N+](=O)[O-])o1)c1ccc(Cl)s1 [Compound 17, 5-chloro-N′-((5-nitrofuran-2-yl)methylene)thiophene-2-carbohydrazide]			19		0.45	moderate inhibitors	potent inhibitors	
